Data published in patent US8859615B2, “Compounds, compositions and methods for reducing toxicity and treating or preventing diseases” (priority 2008, dated 2014).
Where two headings read alike, the source gives them in different places.

Tests used:
[1] = test system: CCRF-CEM human T-cell acute lymphoblastic leukemia cells; assay: In vitro cytotoxicity against CCRF-CEM (XTT / CCK-8 tetrazolium assay, 72 hr); settings: for IC50: Homo sapiens, CCRF-CEM
Description: (§1) The cytotoxicity IC50 of each compound was measured with the XTT assay using the 2,3-bis(2-methoxy-4-nitro-5-sulfophenyl)-5-[(phenylamino)carbonyl]-2H-tetrazolium hydroxide (XTT) microculture method as described in Scudiero et al., Cancer Res., 48:4827 (1988), the contents of which are hereby incorporated by reference in their entirety. The CCK-8 assay is a cell counting kit-8 (CCK-8) tetrazolium assay using a 96-well microplate (Dojindo Molecular Technologies, Inc., Rockville, Md.) (M. Ishiyama et al., Biol. Pharm. Bull. 19: 1518, 1996). Absorbance was measured by Powerwave a XS microplate spectrophotometer. This method described is considered a general method in vitro cytotoxicity studies.
(§2) The data in Tables 2X, 3A-E, 4, 5, and 6 were obtained using the cell counting kit-8 (CCK-8) tetrazolium assay in a 96-well microplate. Five to seven concentrations of each compound in triplicate were used, and the IC50 values were determined by CompuSyn software automation (Chou T C. and Martin N. ComboSyn, Inc., 2006) based on the median-effect equation and plot (Chou T C. J. Theor. Biol. 59:235-276, 1976; Chou T C. Pharmacol. Rev. 58: 621-681, 2006). […] The r value defines the correlation coefficient of the median-effect plot which signifies the conformity to the mass-action law principle (Chou T C. J. Theor. Biol. 59:235-276, 1976; Chou T C. Pharmacol. Rev. 58:621-681, 2006). These parameters were determined by CompuSyn simulation (available at http://www.combosyn.com).
(§3) CCRF-CEM human T-cell acute lymphoblastic leukemia cells and the corresponding vinblastine-resistant cells (CCRF-CEM/VBL100) were cultured at an initial density of 5×10^4 cells per milliliter. The cultured cells were maintained in a 5% CO2-humidified atmosphere at 37° C. in RPMI medium 1640 (GIBCO/BRL) containing penicillin (100 units/mL), streptomycin (100 μg/mL, GIBCO/BRL), and 10% heat-inactivated fetal bovine serum. The cytotoxicity of each Compound of the invention was measured using the 2,3-bis(2-methoxy-4-nitro-5-sulfophenyl)-5-[(phenylamino)carbonyl]-2H-tetrazolium hydroxide (XTT) microculture method as described in Scudiero et al., Cancer Res., 48:4827 (1988), the contents of which are hereby incorporated by reference in their entirety.
(§4) Absorbance was measured by Powerwave XS microplate spectrophotometer.

[2] = test system: CCRF-CEM/VBL100 vinblastine-resistant cells; assay: In vitro cytotoxicity against vinblastine-resistant CCRF-CEM subline; assay type: cell-based, human; settings: for IC50: Homo sapiens, CCRF-CEM
Description: as §1, §2, §3, §4

[3] = test system: CCRF-CEM subline resistant to TAXOL; assay: In vitro cytotoxicity against TAXOL-resistant CCRF-CEM subline; assay type: cell-based, human; settings: for IC50: Homo sapiens, CCRF-CEM
Description: as §2, §4

[4] = test system: human lymphoblastic leukemic T-cell growth; assay: Cytotoxic activity relative to stability during storage at −20° C. in DMSO (Table 10); assay type: cell-based; settings: Homo sapiens, CCRF-CEM, 72 h, Table 10, XTT, 72 hr
Excerpt: Without wishing to be bound by theory, the oxidized versions may be active metabolites. This theory provides an explanation of the delayed onset of therapeutic effects seen in the figures herein. The oxidized compounds may be active agents that are formed slowly upon metabolic oxidation. […] The active metabolites may explain the biphasic pharmacological properties of panaxytriol or Compound D that have been observed (FIGS. 9B, C, D; FIGS. 11D, E, F, and FIGS. 12D, E). […] Induction of the phase 2 enzymes may slow oxidation of the compounds (Ng et al., Tetrahedron Letters. 49: 7178-7179 (2008)).

[5] = 72 h, read-out: IC50 CCRF-CEM, Table 3D, CCK-8, 72-hr incubation
[6] = read-out: IC50 (in μM), cytotoxic potency against cancer cell line growth in vitro, Table 3C, cell line not given
[7] = 72 h, Table 3D, CCK-8, 72-hr incubation, read-out: IC50 CCRF-CEM/Vinblastine
[8] = Table 3D, CCK-8, 72-hr incubation, read-out: IC50 CCRF-CEM/TAXOL
[9] = read-out: IC50 CCRF-CEM, Table 3E
[10] = Table 3E, read-out: IC50 CCRF-CEM/Vinblastine
[11] = Table 3E, read-out: IC50 CCRF-CEM/TAXOL

| Structure (SMILES) | IC50 [1, 5] | IC50 [1, 6] | IC50 [2, 7] | IC50 [3, 8] | IC50 [1, 9] | IC50 [2, 10] | IC50 [3, 11] | other results |
| --- | --- | --- | --- | --- | --- | --- | --- | --- |
| C=C[C@H](C#CC#CC[C@H]1OC(C)(C)O[C@@H]1CCCCCCC)OC(=O)/C=C/c1ccccc1 [Compound (E)] | 642 µM | 642 µM | 106 µM | 156 µM | – | – | – | anti-cancer activity in the in vitro cytotoxicity assay [1]: active against cancer; fold of cross-resistance (CCRF-CEM/Vinblastine vs parent cell line) ([2]; Table 3D, given as x or -fold): 0.17 fold; fold of cross-resistance (CCRF-CEM/TAXOL vs parent cell line) ([3]; Table 3D, given as x or -fold): 0.24 fold |
| C=CC(O)c1ccc(C[C@H]2OC(C)(C)O[C@@H]2CCCCCCC)cc1 (stereo partly drawn) [Compound (O), 1-(4-(((4R,5R)-5-heptyl-2,2-dimethyl-1,3-dioxolan-4-yl)methyl)phenyl)prop-2-en-1-ol] | – | – | – | – | 5.25 µM | 6.52 µM | 10.3 µM | – |
| CCCCCCC[C@H]1OC(C)(C)O[C@@H]1Cc1ccc(C=O)cc1 [Compound (N), 4-(((4R,5R)-5-heptyl-2,2-dimethyl-1,3-dioxolan-4-yl)methyl)benzaldehyde] | – | – | – | – | 12.6 µM | 13.6 µM | 19.4 µM | – |
| CC[C@]1(O)C[C@@H]2CN(CCc3c([nH]c4ccccc34)[C@@](C(=O)OC)(c3cc4c(cc3OC)N(C)[C@H]3[C@@](O)(C(=O)OC)[C@H](OC(C)=O)[C@]5(CC)C=CCN6CC[C@]43[C@@H]65)C2)C1 [Vinblastine] | – | – | – | – | – | – | – | IC50 ([1]; 72 h, read-out: CCRF-CEM (IC50 in μM), Table 3A-2, CCK-8, 72-hr exposure): 0.0011 µM; IC50 ([2]; 72 h, Table 3A-2, CCK-8, 72-hr exposure, read-out: CCRF-CEM/VBL (IC50 in μM)): 0.669 µM; Fold of resistance (IC50 ratio CCRF-CEM/VBL vs CCRF-CEM) ([2]; Table 3A-2): 608 fold; IC50 ([3]; Table 3A-2, CCK-8, 72-hr exposure, read-out: CCRF-CEM/TAXOL (IC50 in μM)): 0.282 µM; Fold of resistance (IC50 ratio CCRF-CEM/TAXOL vs CCRF-CEM) ([3]; Table 3A-2): 256 fold |
| C=CC(=O)C#CC#CC[C@H]1OC(C)(C)O[C@@H]1CCCCCCC [Compound (C)] | – | – | – | – | – | – | – | fold resistance in brackets (IC50 CCRF-CEM/VBL vs CCRF-CEM) ([2]; Table 3): 1.19 x; IC50 ([4]; Aug. 22, 2003 (Stored), same solution kept at −20° C. in DMSO, read-out: IC50 in μM CCRF-CEM): 2.68 µM; IC50 ([4]; Aug. 22, 2003 (Stored), same solution kept at −20° C. in DMSO, read-out: IC50 in μM CCRF-CEM/VBL): 3.9 µM; IC50 ([4]; Jul. 25, 2003 (Fresh), read-out: IC50 in μM CCRF-CEM): 0.404 µM; IC50 ([4]; Jul. 25, 2003 (Fresh), read-out: IC50 in μM CCRF-CEM/VBL): 0.7 µM |
| CCCCCCC[C@H]1OC(C)(C)O[C@@H]1CC#CC#C/C=C/CO [Compound (L)] | 1.92 ± 0.16 µM | 1.92 µM | 2.76 µM | 2.91 µM | – | – | – | – |
| CCCCCCC[C@H]1OC(C)(C)O[C@@H]1Cc1ccc(C(O)CC)cc1 (stereo partly drawn) [Compound (P), 1-(4-(((4R,5R)-5-heptyl-2,2-dimethyl-1,3-dioxolan-4-yl)methyl)phenyl)propan-1-ol] | – | – | – | – | 4.18 µM | 5.14 µM | 11.9 µM | – |
| C=C[C@H](C#CC#CC[C@H]1OC(C)(C)O[C@@H]1CCCCCCC)OC(C)=O [Compound (F)] | 3.88 ± 0.85 µM | 3.88 µM | 8.56 µM | 7.58 µM | – | – | – | – |
| C=CC(C)(O)C#CC#CC[C@H]1OC(C)(C)O[C@@H]1CCCCCCC (stereo partly drawn) [Compound (G)] | 3.77 ± 0.48 µM | 3.77 µM | 7.3 µM | 6.16 µM | – | – | – | – |
| C=C[C@H](C#CC#CC[C@H]1OC(C)(C)O[C@@H]1CCCCCCC)OC [Compound (H)] | 21.6 µM | 21.6 µM | 26.6 µM | 15.1 µM | – | – | – | – |
